The subject of series [1] is Atrial natriuretic factor (ANF) expression, P19 cells. As to the kind of experiment: ANF test (ANF promoter luciferase reporter) in P19 cells. It counts as cell-based, murine. On the set-up: key to Evaluation (luminescence in relation to the blank): −: decrease of luminescence compared to the blank value; +: measurable increase; ++: at least 1.5-fold increase; +++: at least 2-fold increase. The settings on record: for fold induction at 1 µM: Mus musculus, 192 h, read-out: Evaluation (luminescence in relation to the blank); for fold induction at 1 µM / Evaluation (luminescence in relation to the blank): P19 cells (**), compound 1 μM in DMSO, 8 days culture, relative to DMSO blank. The source says:
Atrial natriuretic factor (ANF) or atrial natriuretic peptide (ANP) is a cyclic peptide hormone made up of 28 amino acids, which is predominantly emitted by the muscle cells (myocytes) of the atrium of the heart. It is stored in the atrium as a pro-hormone made of 126 amino acids and is cleaved by serine protease corine into an N-terminal part and the biologically active ANF, which is often used as a cardiac-specific marker protein. In cell differentiation measurements, i.e. in determining the extent to which certain cells have become “cardiac cell-like” by differentiation, often a reporter gene located downstream of the ANF gene is used, as it expression product is easier to detect than the concentration of ANF in a cellular culture, for example, a luciferase gene. Luciferase in an enzyme which catalyzes the oxidation of a luminescent substrate (luciferine). While that happens, light is emitted, and the intensity of that light is correlated with the expression level of ANF and can therefore serve as a measure of ANF expression.
Initial attempts of ANF expression screenings were performed with P19 cells, i.e. murine embryonal carcinoma cells obtained from the ATCC, or C2C12 cells, i.e. a murine myoblast cell line, as models. In preparation, a plasmid was first constructed by amplifying a gene fragment containing a rat ANF promoter region and subcloning it into the PCL3-BV luciferase reporter plasmid of Promega. The P19 cells were temporarily transfected with said plasmid and cultured in Modified Eagle's Medium alpha (MEM-α) with 7.5% neonatal calf serum and 2.5% fetal bovine serum at 37° C. under 5% CO2 in monolayers for 8 days, during which the medium was exchanged three times. The respective compounds were added at about 60% confluence in DMSO as solvents at a concentration of 1 μM or DMSO alone (as a blank). The luminescence of the samples was measured with a Perkin Elmer Victor V 1420 Multilabel Counter. Their increase or decrease in the presence of the compounds of formula (I) is given in Table 1 below in relation to the blank.
The evaluations have the following meanings: • − decrease of luminescence compared to the blank value; • + measurable increase; • ++ at least 1.5-fold increase; • +++ at least 2-fold increase; • * represents C2C12 cells; and • ** represents P19 cells.

From patent US9611457B2, “Triazine derivatives as differentiation catalysts” (TECHNISCHE UNIVERSITAET WIEN, priority 2011, dated 2017) come the findings set out here.

As a reminder, the melting point is the temperature, or range, at which the solid turns liquid.

Consider `O=C(O)c1cccc(Nc2nc(Oc3ccccc3)nc(Oc3ccc(Cl)cc3)n2)c1` [(29), 3-{[4-(4-chlorophenoxy)-6-phenoxy-1,3,5-triazin-2-yl]amino}benzoic acid], for which the melting point fell in the range of 244 to 247 °C. Also, in series [1], the fold induction at 1 µM is at least 2.
For `OCc1ccc(Nc2nc(Oc3ccccc3)nc(Oc3ccccc3)n2)cc1` [(39), {4-[(4,6-diphenoxy-1,3,5-triazin-2-yl)amino]phenyl}methanol], in that order: 152.5 to 154 °C and at least 2.
The compound `COC(=O)c1cccc(Nc2nc(Oc3ccccc3)nc(Oc3ccc(OC)cc3)n2)c1` [(11), 3-{[4-(4-methoxyphenoxy)-6-phenoxy-1,3,5-triazin-2-yl]amino}benzoic acid methyl ester] had a melting point of 56 to 60 °C. For the same compound, the “Evaluation (luminescence in relation to the blank)” value (from here on “Evaluation”) in series [1] is on record as “−**”.
With `O=C(O)c1cccc(Nc2nc(Oc3ccccc3)nc(Oc3ccccc3Cl)n2)c1` [(31), 3-{[4-(2-chlorophenoxy)-6-phenoxy-1,3,5-triazin-2-yl]amino}benzoic acid], the melting point was 249.5 to 251.5 °C. Further, the fold induction at 1 µM in series [1] is at least 1.5.
In turn, `COC(=O)c1cccc(Nc2nc(Oc3ccccc3)nc(Oc3cccc(Cl)c3)n2)c1` [(8), 3-{[4-(3-chlorophenoxy)-6-phenoxy-1,3,5-triazin-2-yl]amino}benzoic acid methyl ester] displayed a melting point of 151.5 to 156 °C. Moreover, the fold induction at 1 µM in series [1] is at least 1.5.
For `O=C(O)c1cccc(Nc2nc(Oc3ccccc3)nc(Oc3cccc([N+](=O)[O-])c3)n2)c1` [(35), 3-{[4-(3-nitrophenoxy)-6-phenoxy-1,3,5-triazin-2-yl]amino}benzoic acid], the melting point was 225 to 228 °C. In addition, the fold induction at 1 µM in series [1] was at least 1.5.
Take `OCc1cccc(Nc2nc(Oc3ccccc3)nc(Oc3ccccc3)n2)c1` [(40), {3-[(4,6-diphenoxy-1,3,5-triazin-2-yl)amino]phenyl}methanol]: the melting point was in the range of 49 to 52 °C. Also, the “Evaluation” value in series [1] was “+**”.
`OCc1cccc(Nc2nc(Oc3ccccc3)nc(Oc3ccc(Cl)cc3)n2)c1` [(41), {3-[(4-(4-chlorophenoxy)-6-phenoxy-1,3,5-triazin-2-yl)amino]phenyl}-methanol] displayed a melting point of 110.5 to 114 °C. Moreover, the “Evaluation” value in series [1] is “−** and (41) (p-chloro): −”.
With `OCc1cccc(Nc2nc(Oc3ccccc3)nc(Oc3cccc(Cl)c3)n2)c1` [(42), {3-[(4-(3-chlorophenoxy)-6-phenoxy-1,3,5-triazin-2-yl)amino]phenyl}-methanol], in series [1], the “Evaluation” value is “+** and (42) (m-chloro): +”.
Compound `COC(=O)c1cccc(Nc2nc(Oc3ccccc3)nc(Oc3ccc(C#N)cc3)n2)c1` [(12), 3-{[4-(4-cyanophenoxy)-6-phenoxy-1,3,5-triazin-2-yl]amino}benzoic acid methyl ester] had a melting point of 116.5 to 120 °C. In series [1], the “Evaluation” value is given as “−**”.
In turn, `COC(=O)c1cccc(Nc2nc(Oc3ccccc3)nc(Oc3ccc(Cl)cc3)n2)c1` [(7), 3-{[4-(4-chlorophenoxy)-6-phenoxy-1,3,5-triazin-2-yl]amino}benzoic acid methyl ester] returned a melting point of 186.5 to 188 °C. Besides, the “Evaluation” value in series [1] is reported as “−**”.
For `CCOC(=O)c1ccc(Nc2nc(Oc3ccccc3)nc(Oc3ccccc3)n2)cc1` [(5), 4-[(4.6-diphenoxy-1,3,5-triazin-2-yl)amino]benzoic acid ethyl ester], in that order: 159 to 161 °C and “−**”.
As to `CC(C)(C)c1ccc(Oc2nc(Nc3cccc(CO)c3)nc(Oc3ccccc3)n2)cc1` [(44), {3-[(4-(4-t-butylphenoxy)-6-phenoxy-1,3,5-triazin-2-yl)amino]phenyl}-methanol], the melting point fell in the range of 47 to 50 °C. Besides, in series [1], the fold induction at 1 µM is at least 2.
With `COc1ccc(Nc2ncnc(NCCO)n2)cc1` [(4), 2-[4-(4-methoxyphenylamino)-1,3,5-triazin-2-ylamino]ethanol], the melting point was in the range of 160 to 164 °C. Besides, the “ANF expression level / efficiency, stated in words” value in series [1] (ANF test, P19 cells (DTAB and summary statements also cover C2C12)) is “the poorest measurement results among all compounds”. For the same compound, the “Evaluation” value in series [1] is recorded as “−**”.
In turn, `COC(=O)c1cccc(Nc2nc(Oc3ccccc3)nc(Oc3ccc(C(C)(C)C)cc3)n2)c1` [(10), 3-{[4-(4-t-butylphenoxy)-6-phenoxy-1,3,5-triazin-2-yl]amino}benzoic acid methyl ester] returned a melting point of 85 to 86 °C. Moreover, in series [1], the “Evaluation” value is “−**”.
`CC(C)(C)c1ccc(Oc2nc(Nc3cccc(C(=O)O)c3)nc(Oc3ccccc3)n2)cc1` [(32), 3-{[4-(4-t-butylphenoxy)-6-phenoxy-1,3,5-triazin-2-yl]amino}benzoic acid] returned a melting point of 245 to 247 °C. Also, the “Evaluation” value in series [1] is given as “+**”.
`OCc1cccc(Nc2nc(Oc3ccccc3)nc(Oc3ccccc3Cl)n2)c1` [(43), {3-[(4-(2-chlorophenoxy)-6-phenoxy-1,3,5-triazin-2-yl)amino]phenyl}-methanol] yielded a melting point of 52 to 54 °C. The “Evaluation” value in series [1] is “−** and (43) (o-chloro): −”.
In the case of `COc1ccc(Oc2nc(Nc3cccc(CO)c3)nc(Oc3ccccc3)n2)cc1` [(45), {3-[(4-(4-methoxyphenoxy)-6-phenoxy-1,3,5-triazin-2-yl)amino]-phenyl}methanol], in series [1], the “Evaluation” value is recorded as “+**”.
`COc1ccc(Oc2nc(Nc3cccc(C(=O)O)c3)nc(Oc3ccccc3)n2)cc1` [(33), 3-{[4-(4-methoxyphenoxy)-6-phenoxy-1,3,5-triazin-2-yl]amino}benzoic acid] showed a melting point of 233 to 236.5 °C. Further, the “Evaluation” value in series [1] is reported as “+**”.
For `COC(=O)c1cccc(Nc2nc(Oc3ccccc3)nc(Oc3ccccc3Cl)n2)c1` [(9), 3-{[4-(2-chlorophenoxy)-6-phenoxy-1,3,5-triazin-2-yl]amino}benzoic acid methyl ester] the same measures were 139 to 141.5 °C and “−**”.
Compound `N#Cc1ccc(Oc2nc(Nc3cccc(C(=O)O)c3)nc(Oc3ccccc3)n2)cc1` [(34), 3-{[4-(4-cyanophenoxy)-6-phenoxy-1,3,5-triazin-2-yl]amino}benzoic acid] had a melting point of 150 °C. Further, the “Evaluation” value in series [1] was “+**”.
With `COC(=O)c1cccc(Nc2nc(Oc3ccccc3)nc(Oc3cccc([N+](=O)[O-])c3)n2)c1` [(13), 3-{[4-(3-nitrophenoxy)-6-phenoxy-1,3,5-triazin-2-yl]amino}benzoic acid methyl ester], the “Evaluation” value in series [1] is “−**”.
Regarding `CC(C)(C)OC(=O)c1cccc(Nc2nc(Oc3ccccc3)nc(Oc3cccc(Cl)c3)n2)c1` [(20), 3-{[4-(3-chlorophenoxy)-6-phenoxy-1,3,5-triazin-2-yl]amino}benzoic acid t-butyl ester], the melting point lay in the range of 187.5 to 190.5 °C.
Same read-out and setting: for `COC(=O)c1cccc(Nc2nc(Oc3ccc(OC)cc3)nc(Oc3ccc(C=O)cc3OC)n2)c1` [(15), 3-{[4-(4-formyl-2-methoxyphenoxy)-6-(4-methoxyphenoxy)-1,3,5-triazin-2-yl]amino}benzoic acid methyl ester] the value was 79 to 82 °C.
